In patent US20180235917A1, “COMPOSITIONS, METHODS AND KITS FOR TREATMENT OF DIABETES AND/OR […]” (NuSirt Sciences, Inc., priority 2014, published 2018):
Marks after values point to notes of the source that are not given here.

How the values were obtained:
[1] = system: adipocytes (3T3-L1) and myotubes (C2C12); experiment: Fatty acid oxidation and dose-response screening, cell type not stated; format: cell-based, mouse; settings: leucine 0.5 mM, HMB 5 μM, resveratrol 200 nM, myo-inositol 100 nM; cell type not stated
diet-induced obese mice = experiment: Diet-induced obese mice fed resveratrol, HMB, leucine: weight, adiposity, fat oxidation, insulin sensitivity (Example 1); format: in vivo, c57/BL6 mice; settings: for Weight: 6 weeks on high-fat diet; for Glucose / Insulin: plasma
Experimental: Six week old male c57/BL6 mice were fed a high-fat diet with fat increased to 45% of energy (Research Diets D12451) for 6 weeks to induce obesity.
The animals were housed in polypropylene cages at a room temperature of 22±2° C. and regime of 12 h light/dark cycle. The animals had free access to water and their experimental food throughout the experiment. At the of the treatment period (6 weeks) all animals were humanely euthanized, and blood and tissues collected for further experiments.
at the end of the obesity induction period (day 0 of treatment group) and at 2 weeks and 6 weeks of treatment, oxygen consumption and substrate utilization was measured via metabolic chambers using the Comprehensive Lab Animal Monitoring Systems (CLAMS, Columbus Instruments, Columbus, Ohio) in subgroups of each treatment group. Each animal was placed in individual cages without bedding that allow automated, non-invasive data collection. Each cage is an indirect open circuit calorimeter that provides measurement of oxygen consumption, carbon dioxide production, and concurrent measurement of food intake. All mice were acclimatized to the chambers for 24 hours prior to the experiment and maintained under the regular 12:12 light:dark cycle with free access to water and food. All experiments were started in the morning and data were collected for 24 hours. Each chamber was passed with 0.61 of air/min and was sampled for 2 min at 32-minute intervals. Exhaust O2 and CO2 content from each chamber was compared with ambient O2 and CO2 content. Food consumption was measured by electronic scales.
at the end of the treatment period (6 weeks of treatment) subgroups of each treatment diet group (5 animals/group, 35 animals total) were used to measure whole body glucose and palmitate uptake via PET/CT Imaging. To visualize these compounds using microPET imaging, the glucose or palmitate was labeled with fluorine-18 (108 mins half-life) or carbon-11 (20 mins half-life), respectively. Each mouse was fasted for 4 hours, then anesthetized using 1-3% isoflurane delivered by nose cone or in a mouse-sized induction chamber purpose-built for small animal imaging protocols. While under anesthesia the mice were injected iv with <2 mCi of each tracer, then be left for a period of time (minutes to up ˜1 hour) to allow the uptake of the tracer. During the scan, mice were kept warm using a thermostatically controlled heated bed and were treated with ophthalmic ointment prior to scanning Following the live scan the mice were returned to their cage and revived. Mice were monitored constantly during this time. Following live data acquisition the mice were sacrificed by isoflurane overdose and organs harvested for further experiments.

Sirt1 = target: T1, Sirt1 (Mus musculus, UniProt Q923E4); experiment: Sirt1 activity (SIRT1 Fluorimetric Drug Discovery Kit) in treated cells; format: cell-based; settings: leucine 0.5 mM, HMB 5 μM, resveratrol 200 nM, alone or combined; cell type not stated
T1 construct: endogenous in cells; host or cells: differentiated 3T3-L1 adipocytes and C2C12 myotubes (lysates)
T1 sequence (Q923E4 1-737): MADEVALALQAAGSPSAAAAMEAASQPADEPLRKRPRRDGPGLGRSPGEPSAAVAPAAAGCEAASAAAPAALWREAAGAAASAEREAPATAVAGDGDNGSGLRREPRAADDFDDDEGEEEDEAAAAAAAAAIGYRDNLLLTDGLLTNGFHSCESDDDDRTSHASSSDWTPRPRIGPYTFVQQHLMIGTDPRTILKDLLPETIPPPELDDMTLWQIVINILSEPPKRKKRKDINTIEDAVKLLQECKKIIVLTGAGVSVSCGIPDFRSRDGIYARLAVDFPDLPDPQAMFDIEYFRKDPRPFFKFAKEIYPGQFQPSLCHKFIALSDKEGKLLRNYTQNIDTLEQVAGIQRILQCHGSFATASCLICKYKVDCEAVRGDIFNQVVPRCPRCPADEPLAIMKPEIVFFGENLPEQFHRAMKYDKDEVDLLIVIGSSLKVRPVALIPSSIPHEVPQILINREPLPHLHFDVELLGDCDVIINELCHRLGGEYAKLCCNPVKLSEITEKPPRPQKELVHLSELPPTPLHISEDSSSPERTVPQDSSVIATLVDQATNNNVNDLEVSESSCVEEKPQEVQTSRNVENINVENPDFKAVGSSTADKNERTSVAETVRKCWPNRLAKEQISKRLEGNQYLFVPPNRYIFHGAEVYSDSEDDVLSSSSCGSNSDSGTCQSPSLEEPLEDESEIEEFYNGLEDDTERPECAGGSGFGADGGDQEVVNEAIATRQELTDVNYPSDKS
Experimental: SIRT1 activity was measured by using the SIRT1 Fluorimetric Drug Discovery Kit (BML-AK555, ENZO Life Sciences International, Inc. PA, USA). The assay measures SIRT1 activity by the degree of deacetylation of a standardized substrate containing an acetylated lysine side chain. The substrate utilized is a peptide containing amino acids 379-382 of human p53 (Arg-His-Lys-Lys[Ac]), an established target of SIRT1 activity; SIRT1 activity is directly proportional to the degree of deacetylation of Lys-382. Samples were incubated with peptide substrate (25 μM), and NAD^+ (500 μM) in a phosphate-buffered saline solution at 37° C. on a horizontal shaker for 45 minutes. […] Following 10 minutes incubation at 37° C., fluorescence was read in a plate-reading fluorometer (Synergy HT, BioTek Instruments, Winooski, Vt.) at an excitation wavelength of 360 nm and an emission wavelength of 450 nm. […]
Sirt1 activity was measured by using the Sirt1 Fluorimetric Drug Discovery Kit (BML-AK555, ENZO Life Sciences Inc., Farmingdale, N.Y., USA). […] Sirt1 activity was assessed by the degree of deacetylation of a standardized substrate containing an acetylated lysine side chain. […] Following 10 minutes incubation at 37° C., fluorescence was read in a plate-reading fluorimeter with excitation and emission wavelengths of 360 nm and 450 nm, respectively. […] Sirt1 activity was measured in a modified assay using 5 μl of cell lysate. […]

With `Oc1ccc(/C=C/c2cc(O)cc(O)c2)cc1` [Resveratrol, 3,5,4′-Trihydroxy-trans-stilbene] the “increase in fatty acid oxidation” value [1] was “no effect”, the Weight (diet-induced obese mice; High Resveratrol 225 mg/kg diet, or Low Resv 12.5 mg/kg + High HMB 10 g CaHMB/kg diet) was 38.7 ± 1.2^a g and the Weight (diet-induced obese mice; low doses: resveratrol 12.5 mg/kg diet, CaHMB 2 g/kg diet, leucine 2.42% of diet) was 40.8 ± 2.5^a g. The “Fat oxidation (PET palmitate uptake; Muscle SUV)” value (diet-induced obese mice; high doses as E2) was 2.29 ± 0.11^b SUV, the HOMAIR (diet-induced obese mice; high doses as E2) was 0.59 ± 0.26^b and the “Heat Production” value (diet-induced obese mice; high doses as E2) was 0.552 ± 0.015^b. The “Muscle Glucose Uptake (^18F-deoxyglucose SUV)” value (diet-induced obese mice; high doses as E2) was 3.87 ± 0.32^a SUV, the “Visceral Adipose Volume” value (diet-induced obese mice; high doses as E2) was 6031 ± 323^a mm^3 and the Weight gain (diet-induced obese mice; high doses as E2) was 22.3 ± 2.4^a g. The “Fat oxidation (PET palmitate uptake; Muscle SUV)” value (diet-induced obese mice; low doses as E1) was 1.51 ± 0.44^a SUV, the HOMAIR (diet-induced obese mice; low doses as E1) was 2.41 ± 0.66^a and the “Heat Production” value (diet-induced obese mice; low doses as E1) was 0.517 ± 0.014^a. The “Muscle Glucose Uptake (^18F-deoxyglucose SUV)” value (diet-induced obese mice; low doses as E1) was 3.63 ± 1.29^a SUV, the “Visceral Adipose Volume” value (diet-induced obese mice; low doses as E1) was 6551 ± 575^a mm^3 and the Weight gain (diet-induced obese mice; low doses as E1) was 20.9 ± 1.5^a g. For the same compound, the Glucose (diet-induced obese mice; high doses as E2) was 5.14 ± 0.75^a mM, the Insulin (diet-induced obese mice; high doses as E2) was 10.1 ± 2.7^a μU/mL and the Glucose (diet-induced obese mice; low doses as E1) was 5.14 ± 0.85^a mM. The Insulin (diet-induced obese mice; low doses as E1) was 10.4 ± 1.6^a μU/mL and the “stimulation of Sirt1 activity” value (Sirt1) was “no effect”.
